As usually defined, the MIC is the least concentration at which growth counts as inhibited. A higher MIC goes with a less susceptible organism. By LD50 is commonly meant the dose at which mortality reaches 50%.

Converted amounts (≈) assume the structure as drawn. The source made the active and inactive calls. No cut-off for these calls is given here. A value given as a limit tells only on which side of the number the result lay.

Data set [1] has as its system Escherichia coli. The experiment in a line: Antibacterial activity against Escherichia coli incubated for 18 hrs by broth microdilution method. In kind it is functional. For orientation: Broth dilution looks for growth in wells or tubes with falling amounts of substance.
Data set [2] deals with Staphylococcus aureus. Briefly: Antibacterial activity against methicillin resistant Staphylococcus aureus 113 incubated for 18 hrs by broth microdilution method. In kind it is functional.
The subject of data set [3] is Staphylococcus aureus. The experiment in a line: Antibacterial activity against Staphylococcus aureus infected in BALB/c mouse systemic infection model assessed as reduction in kidney bacterial load at 10 mg/kg, ip measured after 8 hrs. It is filed as functional, organism-based.
The subject of data set [4] is Staphylococcus aureus. Briefly: Antibacterial activity against Staphylococcus aureus ATCC 25923 incubated for 18 hrs by broth microdilution method. In kind it is functional.
Data set [5] has as its system Staphylococcus aureus. Briefly: Antibacterial activity against methicillin resistant Staphylococcus aureus 75 incubated for 18 hrs by broth microdilution method. In kind it is functional.
Data set [6] deals with Staphylococcus aureus. Briefly: Antibacterial activity against Staphylococcus aureus infected in BALB/c mouse systemic infection model assessed as reduction in liver bacterial load at 10 mg/kg, ip measured after 8 hrs. In kind it is functional, organism-based.
Data set [7] deals with Staphylococcus aureus. Briefly: Antibacterial activity against Staphylococcus aureus incubated for 18 hrs by broth microdilution method. It is filed as functional.
Data set [8] concerns Staphylococcus aureus. The experiment in a line: Antibacterial activity against kanamycin resistant Staphylococcus aureus incubated for 18 hrs by broth microdilution method. It is filed as functional.
The subject of data set [9] is Staphylococcus aureus. The experiment in a line: Antibacterial activity against Staphylococcus aureus S125 incubated for 18 hrs by broth microdilution method. In kind it is functional.
Data set [10] relates to Staphylococcus aureus. The experiment in a line: Antibacterial activity against Staphylococcus aureus S794 incubated for 18 hrs by broth microdilution method. In kind it is functional.
The test system of a further data set is Klebsiella pneumoniae. The experiment in a line: Antibacterial activity against Klebsiella pneumoniae ATCC 700603 incubated for 18 hrs by broth microdilution method. It is filed as functional.
Data set [11] relates to Escherichia coli. The experiment in a line: Antibacterial activity against rifampicin resistant Escherichia coli incubated for 18 hrs by broth microdilution method. It is filed as functional.
Data set [12] deals with Staphylococcus aureus. The experiment in a line: Antibacterial activity against methicillin resistant Staphylococcus aureus incubated for 18 hrs by broth microdilution method. It is filed as functional.
Data set [13] deals with Staphylococcus epidermidis. Briefly: Antibacterial activity against Staphylococcus epidermidis ATCC 12228 incubated for 18 hrs by broth microdilution method. It is filed as functional.
Data set [14] relates to Pseudomonas aeruginosa. Briefly: Antibacterial activity against Pseudomonas aeruginosa ATCC 27853 incubated for 18 hrs by broth microdilution method. In kind it is functional.
The subject of data set [15] is Staphylococcus aureus. Briefly: Antibacterial activity against Staphylococcus aureus infected in BALB/c mouse systemic infection model assessed as reduction in spleen bacterial load at 10 mg/kg, ip measured after 8 hrs. In kind it is functional, organism-based.
The next data set deals with Bacillus subtilis. Briefly: Antibacterial activity against Bacillus subtilis ATCC 23857 incubated for 18 hrs by broth microdilution method. In kind it is functional.
In data set [16] the test system is Escherichia coli. The experiment in a line: Antibacterial activity against kanamycin resistant Escherichia coli incubated for 18 hrs by broth microdilution method. It is filed as functional.
Data set [17] has as its system Escherichia coli. Briefly: Antibacterial activity against Escherichia coli ATCC 25922 incubated for 18 hrs by broth microdilution method. It is filed as functional.
For data set [18], the system named is Staphylococcus aureus. Briefly: Antibacterial activity against rifampicin resistant Staphylococcus aureus incubated for 18 hrs by broth microdilution method. It is filed as functional.
In data set [19] the test system is Staphylococcus aureus. Briefly: Antibacterial activity against Staphylococcus aureus infected in BALB/c mouse systemic infection model assessed as reduction in lung bacterial load at 10 mg/kg, ip measured after 8 hrs. In kind it is functional, organism-based.
The subject of data set [20] is Pseudomonas aeruginosa. Briefly: Drug resistance against Pseudomonas aeruginosa assessed as fold increase in MIC after 40 consecutive days of passages by sequential passaging method. Particulars: time 18 hrs. It is filed as functional.
Data set [21] can be described thus: Acute toxicity in mouse assessed as mortality rate at 30 mg/kg, ip by karber method. In kind it is organism-based. Conditions: in vivo.
A short description of data set [22]: Acute toxicity in ip dosed mouse by karber method. It is filed as organism-based. Particulars: in vivo, ip.
Data set [23] is described as follows: Acute toxicity in mouse assessed as tissue hemorrhage at 25.8 mg/kg, ip by H and E staining based assay. It is filed as organism-based. Particulars: in vivo.
Data set [24] can be described thus: Acute toxicity in mouse assessed as alveolar cavity wrinkling at 25.8 mg/kg, ip by H and E staining based assay. It is filed as organism-based. Conditions: in vivo.
Data set [25] in a line: Acute toxicity in mouse assessed as inflammatory cell infiltration at 25.8 mg/kg, ip by H and E staining based assay. It is filed as organism-based. Particulars: in vivo.
The nature of data set [26]: Acute toxicity in mouse assessed as mortality rate at 25 mg/kg, ip by karber method. Particulars: in vivo. It is filed as organism-based.
A short description of data set [27]: Acute toxicity in mouse assessed as mortality rate at 21 mg/kg, ip by karber method. It is filed as organism-based. Particulars: in vivo.
The next data set concerns Erythrocyte. Briefly: Hemolytic activity in mouse erythrocytes assessed as concentration required to cause 10% hemolysis incubated for 1 hr. In kind it is toxicity, cell-based.
The nature of data set [28]: Acute toxicity in mouse assessed as cellular atrophy at 25.8 mg/kg, ip by H and E staining based assay. It is filed as organism-based. Conditions: in vivo.
A short description of data set [29]: Acute toxicity in mouse assessed as lung cell necrosis at 25.8 mg/kg, ip by H and E staining based assay. Particulars: in vivo. It is filed as organism-based.
Data set [30] in a line: Acute toxicity in mouse assessed as renal cell necrosis at 25.8 mg/kg, ip by H and E staining based assay. It is filed as organism-based. Particulars: in vivo.
A short description of data set [31]: Acute toxicity in mouse assessed as hepatocyte necrosis at 25.8 mg/kg, ip by H and E staining based assay. It is filed as organism-based. Particulars: hepatocytes.

Regarding `O=C(O)c1cn(C2CC2)c2cc(N3CCNCC3)c(F)cc2c1=O` [CIPROFLOXACIN], the minimum inhibitory concentration (MIC) was found to be 0.5 µM (≈ 0.166 µg/mL) in the data set on Escherichia coli [1]; 16 µM (≈ 5.3 µg/mL) against Staphylococcus aureus [2]; 8 µM (≈ 2.65 µg/mL) with Staphylococcus aureus [4]; 256 µM (≈ 84.8 µg/mL) in the data set on Staphylococcus aureus [5]; 8 µM (≈ 2.65 µg/mL) in the data set on Staphylococcus aureus [7]; 4 µM (≈ 1.33 µg/mL) against Staphylococcus aureus [8]. Besides, the MIC with Staphylococcus aureus [9] is 8 µM (≈ 2.65 µg/mL); in the data set on Staphylococcus aureus [10], 256 µM (≈ 84.8 µg/mL); in the data set on Klebsiella pneumoniae it was 8 µM (≈ 2.65 µg/mL); in the data set with Escherichia coli [11], 0.5 µM (≈ 0.166 µg/mL); against Staphylococcus aureus [12], 256 µM (≈ 84.8 µg/mL); in [13], 8 µM (≈ 2.65 µg/mL). For the same molecule, the minimum inhibitory concentration (MIC) against Pseudomonas aeruginosa [14] was 2 µM (≈ 0.663 µg/mL); with Bacillus subtilis it was 2 µM (≈ 0.663 µg/mL); in the data set with Escherichia coli [16], 2 µM (≈ 0.663 µg/mL); against Escherichia coli [17], under 1 µM; in the data set with Staphylococcus aureus [18], 0.5 µM (≈ 0.166 µg/mL). Moreover, the result in the data set with Staphylococcus aureus [3], with Staphylococcus aureus [6] and in the data set on Staphylococcus aureus [19] was Active. In addition, the result in the data set with Staphylococcus aureus [15] was inactive. In addition, the “fold change (FC)” value in the data set with Pseudomonas aeruginosa [20] amounted to 128.

As for POLYMYXIN B, the Activity in data set [21] is 80%; in [23], “Toxic”; in [24] it was “Toxic”; in [25] it was “Toxic”; in data set [26], 60%; in [27] it was 0%. Moreover, the Activity result in [28], in [29], in data set [30] and in data set [31] was “Toxic” each time. Also, in data set [22], the LD50 was determined as 25.68 mg/kg. Besides, the MHC in the data set with Erythrocyte is over 512 µM.
